The values that follow come from patent US11098041B2 (Merck Patent GmbH, priority 2014, dated 2021).

SMILES strings stand for the structures. A value given as a limit tells only on which side of the number the result lay.

For one test, the target named is full-length human BTK (Homo sapiens (Human), UniProt Q06187). As to the kind of experiment: Assay A: microfluidic off-chip mobility shift assay against BTK enzyme. The test is classed as biochemical.
Test [1] has as its target BTK C481S (His-TEV-hsBTK(328-659)(C481S)) (Homo sapiens (Human), UniProt Q06187, C481S). The test is described as follows: Assay B: microfluidic off-chip mobility shift assay against BTK C481S enzyme. The test is classed as biochemical. Particulars: BTK C481S mutant. Put shortly: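 Substrate-to-phosphopeptide conversion quantified by microfluidic mobility shift with laser-induced fluorescence; IC50 and efficacy from log[inhibitor] vs. % activity.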

The subject of test [2] is anti-IgM-induced expression of CD69 on CD19 positive cells (B cells) in human PBMCs. As to the kind of experiment: Assay C: PBMC IC50 assay (anti-IgM-induced CD69 expression). The test is classed as cell-based. The following applies: anti-IgM stimulation. Put shortly:
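Freshly isolated human PBMCs (2.5×10^5/well) pretreated 1 h with compound, then stimulated overnight (~16-18 h) with goat F(ab′)2 anti-human IgM. CD69 on CD19+ B cells measured by flow cytometry; IC50 from percentage CD69+ B cells versus concentration.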

Chain of BTK C481S (His-TEV-hsBTK(328-659)(C481S)) (Q06187 328-659 C481S): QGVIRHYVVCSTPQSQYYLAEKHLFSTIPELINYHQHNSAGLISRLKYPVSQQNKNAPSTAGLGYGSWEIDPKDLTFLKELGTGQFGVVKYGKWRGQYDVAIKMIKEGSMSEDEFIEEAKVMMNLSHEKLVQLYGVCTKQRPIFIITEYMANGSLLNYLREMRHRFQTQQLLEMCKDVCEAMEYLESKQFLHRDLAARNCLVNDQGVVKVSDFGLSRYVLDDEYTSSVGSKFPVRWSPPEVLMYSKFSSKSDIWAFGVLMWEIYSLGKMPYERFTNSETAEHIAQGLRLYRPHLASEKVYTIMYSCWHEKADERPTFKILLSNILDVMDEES
Chain of full-length human BTK (Q06187 whole entry): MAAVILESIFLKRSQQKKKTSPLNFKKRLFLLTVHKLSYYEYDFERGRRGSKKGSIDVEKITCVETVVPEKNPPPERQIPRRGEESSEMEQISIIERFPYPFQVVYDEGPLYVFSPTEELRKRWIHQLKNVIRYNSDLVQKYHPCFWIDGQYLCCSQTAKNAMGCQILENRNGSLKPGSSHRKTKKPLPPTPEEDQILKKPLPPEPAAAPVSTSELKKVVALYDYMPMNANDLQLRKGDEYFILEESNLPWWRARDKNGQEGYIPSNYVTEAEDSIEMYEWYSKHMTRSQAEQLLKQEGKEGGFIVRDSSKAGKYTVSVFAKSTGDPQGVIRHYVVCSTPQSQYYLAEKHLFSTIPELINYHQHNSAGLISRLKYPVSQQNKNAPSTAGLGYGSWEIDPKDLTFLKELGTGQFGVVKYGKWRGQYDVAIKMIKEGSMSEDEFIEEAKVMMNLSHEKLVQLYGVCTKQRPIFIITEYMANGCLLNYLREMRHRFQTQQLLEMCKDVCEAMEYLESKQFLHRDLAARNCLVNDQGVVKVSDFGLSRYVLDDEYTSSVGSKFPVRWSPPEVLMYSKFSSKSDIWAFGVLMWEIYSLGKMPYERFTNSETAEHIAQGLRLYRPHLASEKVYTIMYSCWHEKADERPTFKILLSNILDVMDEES

With `Cn1cc(-c2nc3c(-c4cccc(NC(=O)c5ccc(C6CC6)nc5)c4CO)ccnc3[nH]2)cn1` [Example 49, 6-Cyclopropyl-N-[2-(hydroxymethyl)-3-[2-(1-methyl-1H-pyrazol-4-yl)-3H-imidazo[4,5-b]pyridin-7-yl]phenyl]pyridine-3-carboxamide], the half-maximal inhibitory concentration (IC50) at full-length human BTK is below 100 nM; in test [1], below 100 nM; in test [2], 100 to 1000 nM.

With `Cn1cc(-c2nc3c(-c4cccc(NC(=O)c5cc6c(s5)CCCC6)c4CO)ccnc3[nH]2)cn1` [Example 50, N-[2-(hydroxymethyl)-3-[2-(1-methyl-1H-pyrazol-4-yl)-3H-imidazo[4,5-b]pyridin-7-yl]phenyl]-4,5,6,7-tetrahydro-1-benzothiophene-2-carboxamide], the IC50 was below 100 nM at full-length human BTK, below 100 nM in test [1] and 100 to 1000 nM in test [2].

Consider `Cn1cc(-c2nc3c(-c4ccc(C5(NC(=O)N6CC(OC(C)(C)C)C6)CC5)c(F)c4)ccnc3[nH]2)cn1` [Example 52, 3-(tert-Butoxy)-N-(1-[2-fluoro-4-[2-(1-methyl-1H-pyrazol-4-yl)-3H-imidazo[4,5-b]pyridin-7-yl]phenyl]cyclopropyl)azetidine-1-carboxamide], for which the values for the IC50 (at full-length human BTK; in test [1]; in test [2]) were below 100 nM, below 100 nM and 100 to 1000 nM, respectively.

For `Cn1cc(-c2nc3c(-c4ccc(C5(NC(=O)c6noc(C(C)(C)C)n6)CC5)cc4)ccnc3[nH]2)cn1` [Example 53, 5-tert-Butyl-N-(1-[4-[2-(1-methyl-1H-pyrazol-4-yl)-3H-imidazo[4,5-b]pyridin-7-yl]phenyl]cyclopropyl)-1,2,4-oxadiazole-3-carboxamide], the IC50 (on full-length human BTK; in test [1]; in test [2]) was below 100 nM throughout.

`CN(C)c1ccc(-c2nc3c(-c4ccc(C5(NC(=O)c6ccc(C(C)(C)C)cc6)CC5)cc4)ccnc3[nH]2)nc1` [Example 54, 4-tert-Butyl-N-[1-(4-[2-[5-(dimethylamino)pyridin-2-yl]-3H-imidazo[4,5-b]pyridin-7-yl]phenyl)cyclopropyl]benzamide]: the IC50 was below 100 nM at full-length human BTK, 100 to 1000 nM in test [1] and 100 to 1000 nM in test [2].

With `Cn1cc(-c2nc3c(-c4ccc(CNC(=O)c5ccc(C6CC6)nc5)c(F)c4)ccnc3[nH]2)cn1` [Example 56, 6-Cyclopropyl-N-([2-fluoro-4-[2-(1-methyl-1H-pyrazol-4-yl)-3H-imidazo[4,5-b]pyridin-7-yl]phenyl]methyl)pyridine-3-carboxamide], the IC50 is below 100 nM on full-length human BTK, below 100 nM in test [1] and 1000 to 5000 nM in test [2].

In the case of `CN(C)c1nc(C(=O)NCc2ccc(-c3ccnc4[nH]c(-c5cnn(C)c5)nc34)cc2F)no1` [Example 57, 5-(Dimethylamino)-N-(2-fluoro-4-(2-(1-methyl-1H-pyrazol-4-yl)-3H-imidazo[4,5-b]pyridin-7-yl)benzyl)-1,2,4-oxadiazole-3-carboxamide 2,2,2-trifluoroacetate], the IC50 at full-length human BTK is below 100 nM; in test [1], below 100 nM; in test [2], 1000 to 5000 nM.

With `Cn1cc(-c2nc3c(-c4ccc(CNC(=O)c5noc(C(C)(C)N)n5)c(F)c4)ccnc3[nH]2)cn1` [Example 58, 5-(2-Aminopropan-2-yl)-N-([2-fluoro-4-[2-(1-methyl-1H-pyrazol-4-yl)-3H-imidazo[4,5-b]pyridin-7-yl]phenyl]methyl)-1,2,4-oxadiazole-3-carboxamide], the IC50 at full-length human BTK is below 100 nM; in test [1], below 100 nM; in test [2], 1000 to 5000 nM.

As to `COc1ccc(-c2nc3c(-c4ccc(CNC(=O)c5ccc(C(C)(C)C)cc5)c(F)c4)ccnc3[nH]2)cc1` [Example 62, 4-tert-Butyl-N-([2-fluoro-4-[2-(4-methoxyphenyl)-3H-imidazo[4,5-b]pyridin-7-yl]phenyl]methyl) benzamide], the values for the IC50 (on full-length human BTK; in test [1]; in test [2]) were below 100 nM, below 100 nM and 100 to 1000 nM, respectively.

Consider `COc1ccc(-c2nc3c(-c4ccc(CNC(=O)c5ccc(C6CC6)cc5)c(F)c4)ccnc3[nH]2)cc1` [Example 63, 4-Cyclopropyl-N-([2-fluoro-4-[2-(4-methoxyphenyl)-3H-imidazo[4,5-b]pyridin-7-yl]phenyl]methyl) benzamide], for which the figures for the IC50 (on full-length human BTK; in test [1]; in test [2]) were below 100 nM, below 100 nM and 1000 to 5000 nM, respectively.

Regarding `CC(C)(C)c1ccc(C(=O)NCc2ccc(-c3ccnc4[nH]c(-c5ccc(C6=CCNCC6)cc5)nc34)cc2F)cc1` [Example 66, 4-tert-Butyl-N-[(2-fluoro-4-[2-[4-(1,2,3,6-tetrahydropyridin-4-yl)phenyl]-3H-imidazo[4,5-b]pyridin-7-yl]phenyl)methyl]benzamide], the concentration for half-maximal inhibition (IC50) on full-length human BTK is below 100 nM; in test [1], below 100 nM; in test [2] it was 100 to 1000 nM.

Regarding `Cn1cc(-c2nc3c(-c4ccc(CNC(=O)c5cc(C(C)(C)C)on5)c(F)c4)ccnc3[nH]2)cn1` [Example 67, 5-tert-Butyl-N-([2-fluoro-4-[2-(1-methyl-1H-pyrazol-4-yl)-3H-imidazo[4,5-b]pyridin-7-yl]phenyl]methyl)-1,2-oxazole-3-carboxamide], the IC50 (at full-length human BTK; in test [1]; in test [2]) was below 100 nM each time.

As to `CC(C)(C)c1nc(C(=O)NCc2ccc(-c3ccnc4[nH]c(-c5cnn(CCO)c5)nc34)cc2F)no1` [Example 70, 5-tert-Butyl-N-[(2-fluoro-4-[2-[1-(2-hydroxyethyl)-1H-pyrazol-4-yl]-3H-imidazo[4,5-b]pyridin-7-yl]phenyl)methyl]-1,2,4-oxadiazole-3-carboxamide], the IC50 was below 100 nM at full-length human BTK, below 100 nM in test [1] and 100 to 1000 nM in test [2].

As to `CN1CCN(Cc2ccc(-c3nc4c(-c5ccc(CNC(=O)c6noc(C(C)(C)C)n6)c(F)c5)ccnc4[nH]3)cc2)CC1` [Example 71, 5-tert-Butyl-N-[[2-fluoro-4-(2-[4-[(4-methylpiperazin-1-yl)methyl]phenyl]-1H-imidazo[4,5-b]pyridin-7-yl)phenyl]methyl]-1,2,4-oxadiazole-3-carboxamide], the IC50 (at full-length human BTK; in test [1]; in test [2]) was below 100 nM throughout.

Consider `CC(C)(C)c1nc(C(=O)NCc2ccc(-c3ccnc4[nH]c(-c5cnn(CCN)c5)nc34)cc2F)no1` [Example 72, N-[(4-[2-[1-(2-aminoethyl)-1H-pyrazol-4-yl]-3H-imidazo[4,5-b]pyridin-7-yl]-2-fluorophenyl)methyl]-5-tert-butyl-1,2,4-oxadiazole-3-carboxamide], for which the figures for the IC50 (at full-length human BTK; in test [1]; in test [2]) were below 100 nM, 100 to 1000 nM and 100 to 1000 nM, respectively.

Consider `CC(C)(C)c1nc(C(=O)NCc2ccc(-c3ccnc4[nH]c(-c5cccc(OC(F)(F)F)c5)nc34)cc2F)no1` [Example 74, 5-tert-Butyl-N-[(2-fluoro-4-[2-[3-(trifluoromethoxy)phenyl]-3H-imidazo[4,5-b]pyridin-7-yl]phenyl)methyl]-1,2,4-oxadiazole-3-carboxamide; trifluoroacetic acid], for which the IC50 at full-length human BTK is below 100 nM; in test [1], below 100 nM; in test [2], 100 to 1000 nM.

Turning to `COc1ccnc(-c2nc3c(-c4ccc(CNC(=O)c5noc(C(C)(C)C)n5)c(F)c4)ccnc3[nH]2)c1` [Example 75, 5-tert-Butyl-N-([2-fluoro-4-[2-(4-methoxypyridin-2-yl)-3H-imidazo[4,5-b]pyridin-7-yl]phenyl]methyl)-1,2,4-oxadiazole-3-carboxamide], the IC50 at full-length human BTK is below 100 nM; in test [1] it was below 100 nM; in test [2] it was 100 to 1000 nM.

Consider `CC(C)(C)c1nc(C(=O)NCc2ccc(-c3ccnc4[nH]c(-c5ccc(C(O)CO)cn5)nc34)cc2F)no1` (stereo not drawn) [Example 76, 5-tert-Butyl-N-[(4-[2-[5-(1,2-dihydroxyethyl)pyridin-2-yl]-3H-imidazo[4,5-b]pyridin-7-yl]-2-fluorophenyl)methyl]-1,2,4-oxadiazole-3-carboxamide], for which the IC50 (on full-length human BTK; in test [1]; in test [2]) was below 100 nM throughout.

Take `Cc1cc(CNC(=O)c2noc(C(C)(C)C)n2)c(F)cc1-c1ccnc2[nH]c(-c3cnn(C)c3)nc12` [Example 77, 5-tert-butyl-N-([2-fluoro-5-methyl-4-[2-(1-methyl-1H-pyrazol-4-yl)-3H-imidazo[4,5-b]pyridin-7-yl]phenyl]methyl)-1,2,4-oxadiazole-3-carboxamide]: the concentration for half-maximal inhibition (IC50) on full-length human BTK is below 100 nM; in test [1], below 100 nM; in test [2], 1000 to 5000 nM.

As to `CN1CCN(c2ccc(-c3nc4c(-c5ccc(CNC(=O)c6noc(C(C)(C)C)n6)c(F)c5)ccnc4[nH]3)nc2)CC1` [Example 79, 5-tert-Butyl-N-[(2-fluoro-4-[2-[5-(4-methylpiperazin-1-yl)pyridin-2-yl]-3H-imidazo[4,5-b]pyridin-7-yl]phenyl)methyl]-1,2,4-oxadiazole-3-carboxamide], the IC50 (on full-length human BTK; in test [1]; in test [2]) was below 100 nM throughout.

In the case of `CC(C)(C)c1nc(C(=O)NCc2ccc(-c3ccnc4[nH]c(-c5ccc(N6CCCC6)cn5)nc34)cc2F)no1` [Example 80, 5-tert-Butyl-N-[(2-fluoro-4-[2-[5-(pyrrolidin-1-yl)pyridin-2-yl]-3H-imidazo[4,5-b]pyridin-7-yl]phenyl)methyl]-1,2,4-oxadiazole-3-carboxamide], the results for the half-inhibitory concentration (IC50) (on full-length human BTK; in test [1]; in test [2]) were below 100 nM, below 100 nM and 100 to 1000 nM, respectively.
